Tested on: PC-3 human prostate cancer cells
Assay: Co-administration of Cryptophycin Payload with CTX or iRGD in subcutaneous PC-3 xenograft model
Format: in vivo, mouse
Conditions: iRGD + Cryptophycin Payload 0.2 mg/kg (data not shown)

“iRGD: tumor-penetrating peptide iRGD (CRGDK/RGPD/EC) (SEQ ID NO: 202)” was tested, and the “Effect of co-administration on tumor re-growth versus Cryptophycin Payload alone” value was “re-growth of tumors was not shown to be significantly different”.

Source: patent US11826399B2, “Chlorotoxin agents and uses thereof” (Eisai Inc., priority 2017, dated 2023)
